Assay results from BindingDB's records for doi:10.1016/s0960-894x(00)00485-6 (Axys Pharmaceuticals, 2001).

Assay: Dissociation constant of compound was evaluated from its IC50 against tryptase at different concentrations

In the case of `NC(N)=Nc1ccc(CNC(=O)N2CCN(C(=O)O[C@@H]3CO[C@H]4[C@@H]3OC[C@H]4OC(=O)N3CCN(C(=O)NCc4ccc(N=C(N)N)cc4)CC3)CC2)cc1` [Derivative of APC-2059], the Kd is reported as 0.1 nM.
